Laboratory results: patent US20060009470A1, “Method for specifically potentiating N-type Ca2+ channel activity” (Shuji KANEKO, priority 2001, published 2006)

Assays:
Assay type in all cases: cell-based, rabbit
[1] = target: T1, α1E channel (voltage-dependent calcium channel α1E with α2δ1 and β1b) (Oryctolagus cuniculus, UniProt Q02343); assay: two electrode voltage-clamp, Ba2+ current in Xenopus oocytes expressing α1E channel; conditions: 100 nM test compound; 0 mV, 200 ms test pulse; Xenopus oocyte
T1 construct: expressed in transfected cells; host or cells: Xenopus laevis oocytes injected with mRNAs
Experimental: (§1) Ovary was removed from the abdominal cavity of Xenopus laevis and treated with collagenase to remove follicle covering the oocyte (Kinoshita et al., J. Biol. Chem. 276, 28731-28738 (2001)). A combination of three kinds of mRNAs (16.7 ng each) of voltage-dependent calcium channel subunits α1A, α1B or α1E of rabbit and human α2δ1 and β1b (prepared according to the method described in Kinoshita et al., supra or a similar method) was mixed and injected into the oocyte and this was incubated in modified Birth's saline (88 mM NaCl, 1 mM KCl, 0.41 mM CaCl2, 0.33 mM Ca(NO3)2, 0.82 mM MgSO4, 2.4 mM NaHCO3, 7.5 mM Tris-HCl, 10 U/ml penicillin, 10 μg/ml streptomycin, pH 7.6) at 22° C. for 2 to 4 days.
(§2) The oocyte prepared in the above was placed in a chamber filled with a Ba^2+-containing recording liquid (10 mM Ba(OH)2, 90 mM NaOH, 2 mM KOH, 5 mM Hepes, 0.3 mM niflumic acid, methanesulfonic acid, pH 7.4) and fixed at −80 mV using two glass electrodes. A test pulse (200 ms width) toward 0 mV was applied at 30 second intervals and the whole-cell membrane current was measured. A +100 mV depolarization prepulse (100 ms width) that ends before 40 ms was applied every other pulse to eliminate the effect of G protein βγ subunit that binds with Ca^2+ channel to suppress opening (Kinoshita et al., supra). […]

[2] = target: T2, α1A channel (voltage-dependent calcium channel α1A with α2δ1 and β1b) (Oryctolagus cuniculus, UniProt P27884); assay: two electrode voltage-clamp, Ba2+ current in Xenopus oocytes expressing α1A channel; conditions: 100 nM test compound; 0 mV, 200 ms test pulse; Xenopus oocyte
T2 construct: expressed in transfected cells; host or cells: Xenopus laevis oocytes injected with mRNAs
Experimental: as §1, §2

[3] = target: T3, α1B channel (voltage-dependent calcium channel α1B with α2δ1 and β1b) (Oryctolagus cuniculus, UniProt Q05152); assay: two electrode voltage-clamp, Ba2+ current in Xenopus oocytes expressing α1B channel
T3 construct: expressed in transfected cells; host or cells: Xenopus laevis oocytes injected with mRNAs
T3 sequence (Q05152 whole entry): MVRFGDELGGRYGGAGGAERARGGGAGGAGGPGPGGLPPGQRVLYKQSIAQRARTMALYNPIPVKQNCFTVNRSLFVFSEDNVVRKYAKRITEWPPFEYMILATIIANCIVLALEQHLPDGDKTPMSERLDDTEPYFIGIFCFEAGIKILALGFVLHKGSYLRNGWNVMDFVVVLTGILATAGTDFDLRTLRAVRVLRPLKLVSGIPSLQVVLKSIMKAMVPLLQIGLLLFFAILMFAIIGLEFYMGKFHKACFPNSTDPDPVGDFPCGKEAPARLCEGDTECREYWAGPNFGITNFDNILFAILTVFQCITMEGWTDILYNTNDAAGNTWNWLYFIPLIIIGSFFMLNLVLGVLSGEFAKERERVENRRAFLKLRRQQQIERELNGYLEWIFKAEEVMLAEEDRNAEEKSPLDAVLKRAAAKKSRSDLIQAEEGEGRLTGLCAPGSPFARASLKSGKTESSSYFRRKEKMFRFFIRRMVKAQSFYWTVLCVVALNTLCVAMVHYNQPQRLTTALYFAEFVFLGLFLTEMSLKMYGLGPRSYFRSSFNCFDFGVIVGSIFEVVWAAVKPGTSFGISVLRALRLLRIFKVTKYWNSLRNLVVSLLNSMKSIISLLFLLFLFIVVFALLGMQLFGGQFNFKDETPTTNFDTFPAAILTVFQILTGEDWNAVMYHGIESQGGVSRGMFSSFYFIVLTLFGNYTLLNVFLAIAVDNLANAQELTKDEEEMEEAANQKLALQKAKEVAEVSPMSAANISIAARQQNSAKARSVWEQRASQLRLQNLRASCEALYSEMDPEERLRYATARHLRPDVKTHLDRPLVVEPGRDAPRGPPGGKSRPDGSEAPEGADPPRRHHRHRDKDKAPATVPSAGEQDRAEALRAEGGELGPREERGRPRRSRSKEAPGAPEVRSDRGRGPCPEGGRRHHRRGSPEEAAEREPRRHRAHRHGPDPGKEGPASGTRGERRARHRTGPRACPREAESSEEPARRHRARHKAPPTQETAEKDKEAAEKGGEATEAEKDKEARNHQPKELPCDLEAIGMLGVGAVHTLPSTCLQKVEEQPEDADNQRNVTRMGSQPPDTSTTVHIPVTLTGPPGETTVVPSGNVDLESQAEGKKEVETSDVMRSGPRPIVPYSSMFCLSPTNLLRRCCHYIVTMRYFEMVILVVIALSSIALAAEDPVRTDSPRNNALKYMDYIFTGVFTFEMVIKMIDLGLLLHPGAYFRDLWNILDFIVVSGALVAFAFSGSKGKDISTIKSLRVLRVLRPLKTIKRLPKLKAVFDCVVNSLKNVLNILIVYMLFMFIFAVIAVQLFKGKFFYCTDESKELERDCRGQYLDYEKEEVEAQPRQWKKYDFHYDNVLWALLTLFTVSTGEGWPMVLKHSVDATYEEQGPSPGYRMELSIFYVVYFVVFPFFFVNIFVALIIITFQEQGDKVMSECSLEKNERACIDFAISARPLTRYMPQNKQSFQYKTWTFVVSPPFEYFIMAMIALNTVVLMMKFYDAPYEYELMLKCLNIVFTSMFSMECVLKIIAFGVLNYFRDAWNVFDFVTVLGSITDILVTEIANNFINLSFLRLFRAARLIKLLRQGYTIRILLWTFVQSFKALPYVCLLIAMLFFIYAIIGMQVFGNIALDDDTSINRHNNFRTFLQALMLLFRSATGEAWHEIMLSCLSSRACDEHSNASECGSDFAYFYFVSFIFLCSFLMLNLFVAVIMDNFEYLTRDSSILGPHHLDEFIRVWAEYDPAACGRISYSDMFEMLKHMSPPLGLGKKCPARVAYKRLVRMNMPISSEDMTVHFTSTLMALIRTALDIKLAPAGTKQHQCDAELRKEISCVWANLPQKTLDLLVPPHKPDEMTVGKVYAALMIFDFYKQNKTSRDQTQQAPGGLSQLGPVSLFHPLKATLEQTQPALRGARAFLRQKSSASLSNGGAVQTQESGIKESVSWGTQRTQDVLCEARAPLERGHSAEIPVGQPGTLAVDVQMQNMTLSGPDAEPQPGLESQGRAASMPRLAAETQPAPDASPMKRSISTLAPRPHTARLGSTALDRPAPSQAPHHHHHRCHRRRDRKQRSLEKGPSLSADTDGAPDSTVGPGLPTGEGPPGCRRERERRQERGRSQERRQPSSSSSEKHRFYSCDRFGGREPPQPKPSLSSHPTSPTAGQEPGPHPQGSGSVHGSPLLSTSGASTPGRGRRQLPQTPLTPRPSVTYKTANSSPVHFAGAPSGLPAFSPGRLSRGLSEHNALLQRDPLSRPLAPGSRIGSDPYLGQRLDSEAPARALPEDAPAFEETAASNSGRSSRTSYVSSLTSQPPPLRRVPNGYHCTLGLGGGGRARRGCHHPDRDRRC
T3 sequence (P54289 25-956 partner): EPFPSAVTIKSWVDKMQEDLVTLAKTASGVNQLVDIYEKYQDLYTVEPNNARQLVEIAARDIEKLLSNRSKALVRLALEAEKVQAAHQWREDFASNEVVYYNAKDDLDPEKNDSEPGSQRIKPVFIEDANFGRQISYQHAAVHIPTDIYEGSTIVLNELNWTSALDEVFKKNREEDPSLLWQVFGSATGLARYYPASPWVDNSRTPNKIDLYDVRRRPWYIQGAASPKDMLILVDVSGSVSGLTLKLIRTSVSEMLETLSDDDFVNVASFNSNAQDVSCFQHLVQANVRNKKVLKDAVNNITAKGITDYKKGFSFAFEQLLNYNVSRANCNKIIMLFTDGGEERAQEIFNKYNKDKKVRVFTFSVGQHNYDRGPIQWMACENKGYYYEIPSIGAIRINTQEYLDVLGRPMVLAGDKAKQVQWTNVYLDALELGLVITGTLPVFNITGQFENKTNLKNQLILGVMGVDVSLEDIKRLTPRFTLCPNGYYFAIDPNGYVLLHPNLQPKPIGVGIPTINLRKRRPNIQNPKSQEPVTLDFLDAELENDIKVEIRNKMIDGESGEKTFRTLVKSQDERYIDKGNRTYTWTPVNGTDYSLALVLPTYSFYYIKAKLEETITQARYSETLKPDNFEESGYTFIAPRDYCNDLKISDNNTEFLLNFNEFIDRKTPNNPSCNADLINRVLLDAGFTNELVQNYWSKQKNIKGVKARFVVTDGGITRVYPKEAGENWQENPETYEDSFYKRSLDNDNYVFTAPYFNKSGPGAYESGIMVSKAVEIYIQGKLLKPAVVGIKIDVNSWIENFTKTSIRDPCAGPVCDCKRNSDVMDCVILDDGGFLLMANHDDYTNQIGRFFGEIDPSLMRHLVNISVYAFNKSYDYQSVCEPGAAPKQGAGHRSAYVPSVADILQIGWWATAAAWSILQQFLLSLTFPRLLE
T3 sequence (P54289 957-1103 partner): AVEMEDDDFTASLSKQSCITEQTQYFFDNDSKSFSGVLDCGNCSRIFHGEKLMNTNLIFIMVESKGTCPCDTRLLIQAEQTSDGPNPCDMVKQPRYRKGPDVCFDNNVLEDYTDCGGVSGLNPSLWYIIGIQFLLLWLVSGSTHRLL
T3 sequence (Q02641 whole entry partner): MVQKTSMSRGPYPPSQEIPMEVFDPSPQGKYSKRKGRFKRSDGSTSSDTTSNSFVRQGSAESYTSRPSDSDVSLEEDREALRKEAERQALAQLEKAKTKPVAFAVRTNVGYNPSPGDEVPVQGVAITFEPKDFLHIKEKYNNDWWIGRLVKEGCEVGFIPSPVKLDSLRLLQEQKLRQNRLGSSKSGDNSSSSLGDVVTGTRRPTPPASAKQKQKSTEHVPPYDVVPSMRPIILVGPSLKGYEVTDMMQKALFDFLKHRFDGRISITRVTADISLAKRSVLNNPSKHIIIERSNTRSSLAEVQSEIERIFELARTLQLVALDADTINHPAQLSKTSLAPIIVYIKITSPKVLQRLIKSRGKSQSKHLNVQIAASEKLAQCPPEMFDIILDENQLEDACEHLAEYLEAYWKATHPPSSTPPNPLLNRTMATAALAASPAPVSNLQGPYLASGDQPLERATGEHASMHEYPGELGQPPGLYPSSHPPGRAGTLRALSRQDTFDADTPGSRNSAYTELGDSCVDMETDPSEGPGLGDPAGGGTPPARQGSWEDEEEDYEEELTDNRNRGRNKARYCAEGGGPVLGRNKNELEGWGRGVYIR
Experimental: as §1
The oocyte prepared in the above was placed in a chamber filled with a Ba^2+-containing recording liquid (10 mM Ba(OH)2, 90 mM NaOH, 2 mM KOH, 5 mM Hepes, 0.3 mM niflumic acid, methanesulfonic acid, pH 7.4) and fixed at −80 mV using two glass electrodes. A test pulse (200 ms width) toward 0 mV was applied at 30 second intervals and the whole-cell membrane current was measured. A +100 mV depolarization prepulse (100 ms width) that ends before 40 ms was applied every other pulse to eliminate the effect of G protein βγ subunit that binds with Ca^2+ channel to suppress opening (Kinoshita et al., supra). Based on the Ba^2+ current (IBa) as a Ca^2+ channel current, the leak current was corrected by P/4 protocol. N-(4-Acetyl-1-piperazinyl)-p-fluorobenzamide monohydrate (hereinafter to be also referred to as a test compound) was dissolved in the recording liquid containing Ba^2+ and applied.

Compound: CC(=O)N1CCN(NC(=O)c2ccc(F)cc2)CC1.O [test compound, N-(4-Acetyl-1-piperazinyl)-p-fluorobenzamide monohydrate]
- effect on α1E channel current [1]: almost no effect
- effect on α1A channel current [2]: almost no effect
- effect on α1B channel current ([3]; 100 nM test compound, 0 mV, 200 ms test pulse, Xenopus oocyte): increase in the current
- influence on the voltage-dependency of α1B channel activation/inactivation ([3]; 100 nM test compound, varied depolarization stimulating potential and steady inactive state): almost no influence
- α1B channel current after return into basal solution and washing ([3]; after 100 nM test compound, washed): fell to the same level as that before the treatment
- potentiation of the current amplitude, channel specificity and concentration range ([3]; various concentrations, compared with α1A and α1E channels): α1B channel-specific potentiation of the current amplitude in a relatively narrow concentration range
